Values after ≈ are worked out from the molar mass of the structure shown. Like-named read-outs stand apart in the source and are kept apart here.
Experiments:
[1] = test system: Staph. aureus Smith; test: In vivo activity (oral, iv; ED50) against Staph. aureus Smith in mice
[2] = test system: E. coli; test: Range of MIC for E. coli strains; conditions: Escherichia coli
[3] = test system: Staph.; test: Range of MIC for Staph. strains, including MRSA; conditions: Staphylococcus aureus
[4] = test system: E. coli #311; test: In vivo activity (oral, iv; ED50) against E. coli in mice; conditions: Escherichia coli
From the text: . […] Smith and E. Coli #311 in mammals.
Results of the tests (MIC, oral and IV) are list in Table 7.

[5] = Staphylococcus aureus, in Mus musculus, po, read-out: ED50 Staph Smith SOD
[6] = iv, read-out: ED50 Staph Smith SIV
[7] = 20 h, read-out: Range of MIC, E. coli (Mouse Serum)
[8] = read-out: Range of MIC, E. coli (Water)
[9] = MRSA, read-out: Range of MIC, Staph (Mouse Serum)
[10] = MRSA, read-out: Range of MIC, Staph (Water)
[11] = single intravenous dose (SIV), read-out: ED50 E. coli #311 SIV
[12] = single oral dose (SOD), read-out: ED50 E. coli #311 SOD
[13] = read-out: Minimum inhibitory concentration (MIC), Staph (Human Serum)
[14] = read-out: Minimum inhibitory concentration (MIC), Staph (Water)
[15] = read-out: Minimum inhibitory concentration (MIC), E. coli (Human Serum)

MIC [2, 7] | MIC [2, 8] | MIC ([2]; read-out: Range of MIC, E. coli (mouse serum)) | MIC ([2]; read-out: Range of MIC, E. coli (water)) | MIC [3, 9] | MIC [3, 10] | MIC ([3]; MRSA, read-out: Range of MIC, Staph. (mouse serum)) | MIC ([3]; MRSA, read-out: Range of MIC, Staph. (water)) | MIC [3, 13] | MIC [3, 14] | MIC [2, 15] | MIC ([2]; read-out: Minimum inhibitory concentration (MIC), E. coli (water)) | SMILES | ED50 [1, 5] | ED50 [1, 6] | ED50 [4, 11] | ED50 [4, 12]
0.5 to 4 µg/mL (≈ 0.619 to 4.95 µM) | 16 to 64 µg/mL (≈ 19.8 to 79.2 µM) | 0.5 to 4 µg/mL (≈ 0.619 to 4.95 µM) | 16 to 64 µg/mL (≈ 19.8 to 79.2 µM) | 0.5 to 4 µg/mL (≈ 0.619 to 4.95 µM) | 1 to 8 µg/mL (≈ 1.24 to 9.9 µM) | 0.5 to 4 µg/mL (≈ 0.619 to 4.95 µM) | 1 to 8 µg/mL (≈ 1.24 to 9.9 µM) |  |  |  |  | CCCN(CC(=O)Nc1cc(N(C)C)c2c(c1O)C(=O)C1=C(O)[C@]3(O)C(=O)C(C(N)=O)=C(O)[C@@H](N(C)C)[C@@H]3C[C@@H]1C2)C(=O)OCOC(=O)C12CC3CC(CC(C3)C1)C2 [Example 41, ({[(2-{[(5aR,6aS,7S,10aS)-9-(aminocarbonyl)-4,7-bis(dimethylamino)-1,8,10a,11-tetrahydroxy-10,12-dioxo-5,5a,6,6a,7,10,10a,12-octahydrotetracen-2-yl]amino}-2-oxoethyl)(propyl)amino]carbonyl}oxy)methyl adamantane-1-carboxylate] | 11.3 mg/kg | 0.83 mg/kg |  | 
0.5 to 8 µg/mL (≈ 0.601 to 9.62 µM) |  |  |  | 1 to 2 µg/mL (≈ 1.2 to 2.4 µM) | 2 to 8 µg/mL (≈ 2.4 to 9.62 µM) |  |  | 1 to 4 µg/mL (≈ 1.2 to 4.81 µM) | 2 to 8 µg/mL (≈ 2.4 to 9.62 µM) |  |  | CN(C)c1cc(NC(=O)CN(C(=O)OCOC(=O)c2ccc(C(F)(F)F)cc2)C(C)(C)C)c(O)c2c1C[C@H]1C[C@H]3[C@H](N(C)C)C(O)=C(C(N)=O)C(=O)[C@@]3(O)C(O)=C1C2=O [Example 55, ({[(2-{[(5aR,6aS,7S,10aS)-9-(aminocarbonyl)-4,7-bis(dimethylamino)-1,8,10a,11-tetrahydroxy-10,12-dioxo-5,5a,6,6a,7,10,10a,12-octahydrotetracen-2-yl]amino}-2-oxoethyl)(tert-butyl)amino]carbonyl}oxy)methyl 4-(trifluoromethyl)benzoate] | > 16 mg/kg | 1.81 mg/kg | 4.69 mg/kg | 32 mg/kg
0.25 to 2 µg/mL (≈ 0.344 to 2.75 µM) |  |  |  | 0.25 to 1 µg/mL (≈ 0.344 to 1.37 µM) | 1 to 4 µg/mL (≈ 1.37 to 5.5 µM) |  |  | 0.25 to 2 µg/mL (≈ 0.344 to 2.75 µM) | 1 to 4 µg/mL (≈ 1.37 to 5.5 µM) | 4 to 32 µg/mL (≈ 5.5 to 44 µM) |  | CN(C)c1cc(NC(=O)CN(C(=O)OCOC(=O)C2CC2)C(C)(C)C)c(O)c2c1C[C@H]1C[C@H]3[C@H](N(C)C)C(O)=C(C(N)=O)C(=O)[C@@]3(O)C(O)=C1C2=O [Example 56, ({[(2-{[(5aR,6aS,7S,10aS)-9-(aminocarbonyl)-4,7-bis(dimethylamino)-1,8,10a,11-tetrahydroxy-10,12-dioxo-5,5a,6,6a,7,10,10a,12-octahydrotetracen-2-yl]amino}-2-oxoethyl)(tert-butyl)amino]carbonyl}oxy)methyl cyclopropanecarboxylate] | > 16 mg/kg | 0.79 mg/kg |  | 
0.5 to 4 µg/mL (≈ 0.608 to 4.87 µM) | > 64 µg/mL |  |  | 0.5 to 2 µg/mL (≈ 0.608 to 2.43 µM) | 4 to 16 µg/mL (≈ 4.87 to 19.5 µM) |  |  | 1 to 8 µg/mL (≈ 1.22 to 9.73 µM) | 4 to 16 µg/mL (≈ 4.87 to 19.5 µM) | > 64 µg/mL | > 64 µg/mL | CN(C)c1cc(NC(=O)CN(C(=O)OCOC(=O)C23CC4CC(CC(C4)C2)C3)C(C)(C)C)c(O)c2c1C[C@H]1C[C@H]3[C@H](N(C)C)C(O)=C(C(N)=O)C(=O)[C@@]3(O)C(O)=C1C2=O [Example 57, ({[(2-{[(5aR,6aS,7S,10aS)-9-(aminocarbonyl)-4,7-bis(dimethylamino)-1,8,10a,11-tetrahydroxy-10,12-dioxo-5,5a,6,6a,7,10,10a,12-octahydrotetracen-2-yl]amino}-2-oxoethyl)(tert-butyl)amino]carbonyl}oxy)methyl adamantane-1-carboxylate] | 6.36 mg/kg | 1.17 mg/kg |  | 
0.12 to 0.25 µg/mL (≈ 0.143 to 0.298 µM) | > 64 µg/mL |  |  | 0.5 to 1 µg/mL (≈ 0.595 to 1.19 µM) | 32 to 64 µg/mL (≈ 38.1 to 76.2 µM) |  |  |  |  |  |  | CN(C)c1cc(NC(=O)CN(C(=O)OCOC(=O)c2ccc(-c3ccccc3)cc2)C(C)(C)C)c(O)c2c1C[C@H]1C[C@H]3[C@H](N(C)C)C(O)=C(C(N)=O)C(=O)[C@@]3(O)C(O)=C1C2=O [Example 71, ({[(2-{[(5aR,6aS,7S,10aS)-9-(aminocarbonyl)-4,7-bis(dimethylamino)-1,8,10a,11-tetrahydroxy-10,12-dioxo-5,5a,6,6a,7,10,10a,12-octahydrotetracen-2-yl]amino}-2-oxoethyl)(tert-butyl)amino]carbonyl}oxy)methyl 1,1′-biphenyl-4-carboxylate] | > 32 mg/kg | 1 mg/kg | > 4 mg/kg | > 32 mg/kg
0.5 to 1 µg/mL (≈ 0.614 to 1.23 µM) | 8 to 16 µg/mL (≈ 9.83 to 19.7 µM) |  |  | 0.5 to 2 µg/mL (≈ 0.614 to 2.46 µM) | 4 to 8 µg/mL (≈ 4.91 to 9.83 µM) |  |  |  |  |  |  | CN(C)c1cc(NC(=O)CN(C(=O)OCOC(=O)c2cccc3ccccc23)C(C)(C)C)c(O)c2c1C[C@H]1C[C@H]3[C@H](N(C)C)C(O)=C(C(N)=O)C(=O)[C@@]3(O)C(O)=C1C2=O [Example 81, ({[(2-{[(5aR,6aS,7S,10aS)-9-(aminocarbonyl)-4,7-bis(dimethylamino)-1,8,10a,11-tetrahydroxy-10,12-dioxo-5,5a,6,6a,7,10,10a,12-octahydrotetracen-2-yl]amino}-2-oxoethyl)(tert-butyl)amino]carbonyl}oxy)methyl 1-naphthoate] | 16 to 32 mg/kg | > 4 mg/kg |  | 
 | > 64 µg/mL |  |  | 4 to 6 µg/mL (≈ 4.91 to 7.37 µM) | 4 to 8 µg/mL (≈ 4.91 to 9.83 µM) |  |  |  |  |  |  | CN(C)c1cc(NC(=O)CN(C(=O)OCOC(=O)c2ccc3ccccc3c2)C(C)(C)C)c(O)c2c1C[C@H]1C[C@H]3[C@H](N(C)C)C(O)=C(C(N)=O)C(=O)[C@@]3(O)C(O)=C1C2=O [Example 82, ({[(2-{[(5aR,6aS,7S,10aS)-9-(aminocarbonyl)-4,7-bis(dimethylamino)-1,8,10a,11-tetrahydroxy-10,12-dioxo-5,5a,6,6a,7,10,10a,12-octahydrotetracen-2-yl]amino}-2-oxoethyl)(tert-butyl)amino]carbonyl}oxy)methyl 2-naphthoate] | 22 mg/kg | 0.52 mg/kg |  | 
2 to 4 µg/mL (≈ 2.5 to 5 µM) | > 64 µg/mL |  |  | 0.25 to 2 µg/mL (≈ 0.313 to 2.5 µM) | 1 to 16 µg/mL (≈ 1.25 to 20 µM) |  |  |  |  |  |  | CN(C)c1cc(NC(=O)CN(C(=O)OCOC(=O)c2c(F)cccc2F)C(C)(C)C)c(O)c2c1C[C@H]1C[C@H]3[C@H](N(C)C)C(O)=C(C(N)=O)C(=O)[C@@]3(O)C(O)=C1C2=O [Example 90, ({[(2-{[(5aR,6aS,7S,10aS)-9-(aminocarbonyl)-4,7-bis(dimethylamino)-1,8,10a,11-tetrahydroxy-10,12-dioxo-5,5a,6,6a,7,10,10a,12-octahydrotetracen-2-yl]amino}-2-oxoethyl)(tert-butyl)amino]carbonyl}oxy)methyl 2,6-difluorobenzoate] | 16 to 32 mg/kg | 0.5 to 1 mg/kg |  | 
0.5 to 2 µg/mL (≈ 0.64 to 2.56 µM) | > 64 µg/mL |  |  | 0.12 to 0.25 µg/mL (≈ 0.153 to 0.32 µM) | 0.25 to 2 µg/mL (≈ 0.32 to 2.56 µM) |  |  |  |  |  |  | CN(C)c1cc(NC(=O)CN(C(=O)OCOC(=O)c2ccccc2F)C(C)(C)C)c(O)c2c1C[C@H]1C[C@H]3[C@H](N(C)C)C(O)=C(C(N)=O)C(=O)[C@@]3(O)C(O)=C1C2=O [Example 91, ({[(2-{[(5aR,6aS,7S,10aS)-9-(aminocarbonyl)-4,7-bis(dimethylamino)-1,8,10a,11-tetrahydroxy-10,12-dioxo-5,5a,6,6a,7,10,10a,12-octahydrotetracen-2-yl]amino}-2-oxoethyl)(tert-butyl)amino]carbonyl}oxy)methyl 2-fluorobenzoate] | 11.7 mg/kg | 1.21 mg/kg |  | 
1 to 4 µg/mL (≈ 1.2 to 4.8 µM) |  |  |  | 1 to 2 µg/mL (≈ 1.2 to 2.4 µM) | 32 to 64 µg/mL (≈ 38.4 to 76.8 µM) |  |  |  |  |  |  | CN(C)c1cc(NC(=O)CN(C(=O)OCOC(=O)c2ccc(N3CCCC3)cc2)C(C)(C)C)c(O)c2c1C[C@H]1C[C@H]3[C@H](N(C)C)C(O)=C(C(N)=O)C(=O)[C@@]3(O)C(O)=C1C2=O [Example 93, ({[(2-{[(5aR,6aS,7S,10aS)-9-(aminocarbonyl)-4,7-bis(dimethylamino)-1,8,10a,11-tetrahydroxy-10,12-dioxo-5,5a,6,6a,7,10,10a,12-octahydrotetracen-2-yl]amino}-2-oxoethyl)(tert-butyl)amino]carbonyl}oxy)methyl 4-pyrrolidin-1-ylbenzoate] | > 32 mg/kg | 0.5 to 1 mg/kg |  | 
1 to 4 µg/mL (≈ 1.24 to 4.98 µM) | 2 to 8 µg/mL (≈ 2.49 to 9.95 µM) |  |  | 2 to 8 µg/mL (≈ 2.49 to 9.95 µM) | 4 to 16 µg/mL (≈ 4.98 to 19.9 µM) |  |  |  |  |  |  | CCCCN(CC(=O)Nc1cc(N(C)C)c2c(c1O)C(=O)C1=C(O)[C@]3(O)C(=O)C(C(N)=O)=C(O)[C@@H](N(C)C)C3CC1C2)C(=O)OCc1oc(=O)oc1-c1ccccc1 (stereo partly drawn) [Example 112, (2-oxo-5-phenyl-1,3-dioxol-4-yl)methyl 2-{[(7S,10aS)-9-(aminocarbonyl)-4,7-bis(dimethylamino)-1,8,10a,11-tetrahydroxy-10,12-dioxo-5,5a,6,6a,7,10,10a,12-octahydrotetracen-2-yl]amino}-2-oxoethyl(butyl)carbamate] | 6.12 mg/kg | 0.48 mg/kg |  | 
1 to 4 µg/mL (≈ 1.2 to 4.8 µM) | 2 to 16 µg/mL (≈ 2.4 to 19.2 µM) |  |  | 4 to 16 µg/mL (≈ 4.8 to 19.2 µM) | 4 to 32 µg/mL (≈ 4.8 to 38.4 µM) |  |  |  |  |  |  | CCCCN(CC(=O)Nc1cc(N(C)C)c2c(c1O)C(=O)C1=C(O)[C@]3(O)C(=O)C(C(N)=O)=C(O)[C@@H](N(C)C)C3CC1C2)C(=O)OCc1oc(=O)oc1-c1ccc(OC)cc1 (stereo partly drawn) [Example 113, [5-(4-methoxyphenyl)-2-oxo-1,3-dioxol-4-yl]methyl 2-{[(7S,10aS)-9-(aminocarbonyl)-4,7-bis(dimethylamino)-1,8,10a,11-tetrahydroxy-10,12-dioxo-5,5a,6,6a,7,10,10a,12-octahydrotetracen-2-yl]amino}-2-oxoethyl(butyl)carbamate] | 7.01 mg/kg | 0.4 mg/kg |  | 
